# Assay results: patent US11447517B2, “Galactoside inhibitor of galectins” (GALECTO BIOTECH AB, priority 2018, dated 2022)
# Biological target: galectin-3 (Homo sapiens (Human), UniProt P17931)
# Assay: Fluorescence anisotropy assay, inhibition of galectin / fluorescein tagged saccharide probe interaction
# Type: binding
# Method: Evaluation of Kd Values The affinity of Example 1-71 for galectins were determined by a fluorescence anisotropy assay where the compound was used as an inhibitor of the interaction between galectin and a fluorescein tagged saccharide probe as described Sörme, P., Kahl-Knutsson, B., Huflejt, M., Nilsson, U. J., and Leffler H. (2004) Fluorescence polarization as an analytical tool to evaluate galectin-ligand interactions. Anal. Biochem. 334: 36-47, (Sörme et al., 2004) and Monovalent interactions of Galectin-1 By Salomonsson, Emma; Larumbe, Amaia; Tejler, Johan; Tullberg, Erik; Rydberg, Hanna; Sundin, Anders; Khabut, Areej; Frejd, Torbjorn; Lobsanov, Yuri D.; Rini, James M.; et al, From Biochemistry (2010), 49(44), 9518-9532, (Salomonsson et al., 2010). […] 100 nM albumin was included as a carrier to prevent protein loss at such low concentration of galectin.
# Chain of galectin-3 (P17931 whole entry): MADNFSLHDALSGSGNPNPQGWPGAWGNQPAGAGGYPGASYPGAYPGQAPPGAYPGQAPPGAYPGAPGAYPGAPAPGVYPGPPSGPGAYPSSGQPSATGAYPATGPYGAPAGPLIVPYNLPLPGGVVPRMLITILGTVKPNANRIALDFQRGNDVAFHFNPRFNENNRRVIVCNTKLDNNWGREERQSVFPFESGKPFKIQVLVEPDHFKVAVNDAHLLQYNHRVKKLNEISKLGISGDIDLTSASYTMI
row,Kd [nM],Compound
1,74,"CCO[C@@H]1[C@@H](n2cc(-c3cc(F)c(F)c(F)c3)nn2)[C@@H](O)[C@@H](CO)O[C@@H]1Sc1cncc(Br)c1 [Example 17, 5-Bromopyridin-3-yl 3-deoxy-3-[4-(3,4,5-trifluorophenyl)-1H-1,2,3-triazol-1-yl]-2-O-ethyl-1-thio-α-D-galactopyranoside]"
2,42,"CO[C@@H]1[C@@H](n2cc(-c3ccc(Cl)c(F)c3)nn2)[C@@H](O)[C@@H](CO)O[C@@H]1Sc1cncc(Cl)c1 [Example 37, 5-Chloropyridin-3-yl 3-[4-(4-chloro-3-fluorophenyl)-1H-1,2,3-triazol-1-yl]-3-deoxy-2-O-methyl-1-thio-α-D-galactopyranoside]"
3,12,"CO[C@@H]1[C@@H](n2cc(-c3cc(F)c(F)c(F)c3)nn2)[C@@H](O)[C@@H](CO)O[C@@H]1Sc1cc(Cl)ccc1C(=O)N1CCC1 [Example 70, 2-(N-azetidinyl-carbonyl)-5-chlorophenyl 3-deoxy-3-[4-(3,4,5-trifluorophenyl)-1H-1,2,3-triazol-1-yl]-2-O-methyl-1-thio-α-D-galactopyranoside]"
4,8,"COC1[C@@H](Sc2cc(Cl)ccc2C(=O)N(C)C)OC(CO)[C@H](O)[C@@H]1n1cc(-c2cc(F)c(F)c(F)c2)nn1 (stereo partly drawn) [Example 3, 4-Chloro-N,N-dimethyl-benzamide-2-yl 3-deoxy-3-[4-(3,4,5-trifluorophenyl)-1H-1,2,3-triazol-1-yl]-2-O-methyl-1-thio-α-D-galactopyranoside]"
5,50,"CO[C@@H]1[C@@H](n2cc(-c3cc(F)c(Cl)c(F)c3)nn2)[C@@H](O)[C@@H](CO)O[C@@H]1Sc1cc(C)cnc1C#N [Example 49, 2-Cyano-5-methylpyridin-3-yl 3-[4-(4-chloro-3,5-difluorophenyl)-1H-1,2,3-triazol-1-yl]-3-deoxy-2-O-methyl-1-thio-α-D-galactopyranoside]"
6,37,"COC1[C@@H](Sc2cc(Cl)c(C#N)nc2N2CC3(COC3)C2)OC(CO)[C@H](O)[C@@H]1n1cc(-c2cc(F)c(F)c(F)c2)nn1 (stereo partly drawn) [Example 23, 5-Chloro-6-cyano-2-{N-(2-oxa)-6-azaspiro[3.3]heptanyl}-pyridin-3-yl 3-deoxy-3-[4-(3,4,5-trifluorophenyl)-1H-1,2,3-triazol-1-yl]-2-O-methyl-1-thio-α-D-galactopyranoside]"
7,880,"CO[C@@H]1[C@@H](n2cc(-c3ccc(Cl)c(C)n3)nn2)[C@@H](O)[C@@H](CO)O[C@@H]1Sc1cncc(Cl)c1 [Example 44, 5-Chloropyridin-3-yl 3-[4-(5-chloro-6-methylpyridin-2-yl)-1H-1,2,3-triazol-1-yl]-3-deoxy-2-O-methyl-1-thio-α-D-galactopyranoside]"
8,21,"CO[C@@H]1[C@@H](n2cc(-c3cc(F)c(Cl)c(F)c3)nn2)[C@@H](O)[C@@H](CO)O[C@@H]1Sc1cncc(Br)c1 [Example 34, 5-Bromopyridin-3-yl 3-[4-(4-chloro-3,5-difluorophenyl)-1H-1,2,3-triazol-1-yl]-3-deoxy-2-O-methyl-1-thio-α-D-galactopyranoside]"
9,65,"CO[C@@H]1[C@@H](n2cc(-c3cc(F)c(F)c(F)c3)nn2)[C@@H](O)[C@@H](CO)O[C@@H]1Sc1cnc(C#N)c(Cl)c1 [Example 45, 3-Chloro-2-cyanopyridin-5-yl 3-deoxy-3-[4-(3,4,5-trifluorophenyl)-1H-1,2,3-triazol-1-yl]-2-O-methyl-1-thio-α-D-galactopyranoside]"
10,50,"CO[C@@H]1[C@@H](n2cc(-c3cc(F)c(C)c(F)c3)nn2)[C@@H](O)[C@@H](CO)O[C@@H]1Sc1cc(Cl)ccc1C#N [Example 14, 5-Chloro-2-cyanophenyl 3-deoxy-3-[4-(3,5-difluoro-4-methylphenyl)-1H-1,2,3-triazol-1-yl]-2-O-methyl-1-thio-α-D-galactopyranoside]"
